Read-outs that look alike come from different tables or passages of the source.
How the values were obtained:
[1] = system: T-lymphoblastic leukemia cell line CEM; assay: MTT cytotoxicity assay, CEM; format: cell-based, human; conditions: 72 hours (TCS50 in the method)
Excerpt: (§1) One of the parameters used as the basis for colorimetric assays is the metabolic activity of viable cells. For example, a microtiter assay, which uses the tetrazolium salt MTT, is now widely used to quantitate cell proliferation and cytotoxicity. For instance, this assay is used in drug screening programs and in chemosensitivity testing. Because only metabolically active cells cleave tetrazolium salts, these assays detect viable cells exclusively. In the case of MTT assay, yellow soluble tetrazolium salt is reduced to coloured water-insoluble formazan salt. After it is solubilized, the formazan formed can easily and rapidly be quantified in a conventional ELISA plate reader at 570 nm (maximum absorbance). The quantity of reduced formazan corresponds to number of vital cells in the culture. Human T-lymphoblastic leukemia cell line CEM; promyelocytic HL-60 and monocytic U937 leukemias; breast carcinoma cell lines MCF-7, BT549, MDA-MB-231; glioblastoma U87MG cells; cervical carcinoma cells HELA; sarcoma cells U20S and Saos2; hepatocellular carcinoma HepG2; mouse immortalized bone marrow macrophages B2.4 and B10A.4; P388D1 and L1210 leukemia; B16 and B16F10 melanomas were used for routine screening of the compounds according to the invention. The cells were maintained in Nunc/Corning 80 cm^2 plastic tissue culture flasks and cultured in cell culture medium (DMEM with 5 g/l glucose, 2 mM glutamine, 100 U/ml penicillin, 100 μg/ml streptomycin, 10% fetal calf serum and sodium bicarbonate).
(§2) The cell suspensions that were prepared and diluted according to the particular cell type and the, expected target cell density (2500-30000 cells per well based on cell growth characteristics) were added by pipette (80 μl) into 96-well microtiter plates. Inoculates were allowed a pre-incubation period of 24 hours at 37° C. and 5% CO2 for stabilisation. Four-fold dilutions of the intended test concentration were added at time zero in 20 μl aliquots to the microtiter plate wells. Usually, test compound was evaluated at six 4-fold dilutions. In routine testing, the highest well concentration was 266.7 μM, but it can be the matter of change dependent on the agent. All drug concentrations were examined in duplicates. Incubations of cells with the test compounds lasted for 72 hours at 37° C., in 5% CO2 atmosphere and 100% humidity. At the end of incubation period, the cells were assayed by using the MTT. Ten microliters of the MTT stock solution were pipetted into each well and incubated further for 1-4 hours. After this incubation period, formazan was solubilized by addition of 100 μl/well of 10% SDS in water (pH=5.5) followed by further incubation at 37° C. overnight. The optical density (OD) was measured at 540 nm with the Labsystem iEMS Reader MF (UK). The tumour cell survival (TCS) was calculated using the following equation: TCS=(ODdrug exposed well/mean ODcontrol wells)×100%. The TCS50 value, the drug concentration lethal to 50% of the tumour cells, was calculated from the obtained dose response curves.
(§3) The cytoxicity of novel compounds was tested on panel of cell lines of different histogenetic and species origin (Table 7). Equal activities were found in all tumour cell lines tested. […] Importantly, this observation distinguishes the purine derivatives of the invention from flavopiridol and related compounds, as their biological activity is dependent on p53 status.

B16 melanoma = assay: MTT cytotoxicity assay, B16; format: cell-based, mouse; conditions: 72 hours (TCS50 in the method)
Excerpt: as §1, §2, §3

CDC2 = biological target: T1, CDC2 (Homo sapiens, UniProt P06493); assay: p34cdc2 (CDC2) kinase inhibition assay, histone H1 substrate; format: biochemical
T1 construct: made in house; host or cells: Sf9 insect cells, baculovirus co-infection
T1 sequence (P06493 whole entry, species assumed): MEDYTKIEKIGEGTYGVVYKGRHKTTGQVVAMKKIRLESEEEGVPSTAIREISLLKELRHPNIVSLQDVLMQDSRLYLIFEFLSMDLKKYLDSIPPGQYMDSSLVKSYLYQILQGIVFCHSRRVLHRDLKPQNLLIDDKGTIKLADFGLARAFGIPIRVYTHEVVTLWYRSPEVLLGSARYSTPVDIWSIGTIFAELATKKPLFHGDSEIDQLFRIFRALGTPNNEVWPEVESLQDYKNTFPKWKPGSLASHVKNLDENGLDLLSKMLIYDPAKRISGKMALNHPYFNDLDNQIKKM
T1 sequence (P14635 whole entry partner, species assumed): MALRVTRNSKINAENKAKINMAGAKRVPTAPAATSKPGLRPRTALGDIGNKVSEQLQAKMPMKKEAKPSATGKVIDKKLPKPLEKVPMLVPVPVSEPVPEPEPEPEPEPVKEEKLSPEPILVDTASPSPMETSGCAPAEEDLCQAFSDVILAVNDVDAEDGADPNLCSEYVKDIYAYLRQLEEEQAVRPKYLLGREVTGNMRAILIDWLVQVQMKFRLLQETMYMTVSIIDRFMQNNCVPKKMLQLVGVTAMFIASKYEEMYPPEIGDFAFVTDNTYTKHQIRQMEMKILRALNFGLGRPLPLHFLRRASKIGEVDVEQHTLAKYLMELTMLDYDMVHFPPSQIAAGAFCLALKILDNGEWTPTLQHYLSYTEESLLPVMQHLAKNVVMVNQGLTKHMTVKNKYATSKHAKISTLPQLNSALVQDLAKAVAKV

[2] = system: PHA-stimulated lymphocytes (PBMC); assay: cell number of PHA-stimulated lymphocytes (PBMC), flow cytometry; format: cell-based, human; conditions: 96 hours, in the presence of IL-2; for CC50: Homo sapiens, Lymphocyte, read-out: Lymphocytes IC50
Protocol: Human peripheral blood mononuclear cells were isolated by density gradient (Ficoll-Hypaque) (LSM, ICN Biomedicals Inc.). PBMC were stimulated with 5 μg/ml phytohemaglutinin A (PHA) (Sigma) during 24-48 hours in IMDM supplemented with 10% FCS (IMDM/10% FCS) at 37° C. After washing off the PHA, PBMC were incubated with interleukin-2 (IL-2) (10 U/ml) (Genzyme).
(§4) Cells were plated at 10000 per well in 200 μl IMDM medium and incubated with 0-50 μM of the compounds of the invention (Table 5), by addition of the drugs directly to the culture medium and incubated at 37° C. for 96 hours. Absolute cell number was determined by addition of a known concentration of Fluoresbrite microspheres (FITC) (Polysciences, Inc.). The absolute number of cells per well was calculated as: {(total number of beads added per well)/(number of beads measured)}×(number of measured cells in the gate of interest). All analyses were performed with a FACScan (BD), using CELLQuest software (Becton Dickinson).
The novel compounds were tested for cytotoxicity on PHA-stimulated lymphocytes (PBMC), as one of the normal counterparts of the cell lines. Cells were grown for 96 hours in the presence of IL-2 and different concentrations of the novel compounds and cell number was counted on the flow cytometer.

[3] = system: T-lymphocyte leukemia Molt3 cell line; assay: cell growth of Molt3 cell line, flow cytometric cell count; format: cell-based, human; conditions: 96 hours of culture
Protocol: Cell lines: Human leukemic cell lines were obtained from the American Type Culture Collection (ATCC, Rockville, Md., USA). They were cultured in Iscove's Modified Dulbecco's Medium (IMDM) supplemented with 10% heat inactivated fetal calf serum (FCS), 200 U/ml penicillin, 200 μg/ml streptomycin and 1 μg/ml amphotericin B. Cells were cultured in a 5% CO2-95% air fully humidified incubator. For effects on clonogenic output, 1000 cells/well were plated in duplicate in methylcellulose (0.9%), supplemented with 20% FCS and cultured for 14 days.
as §4
The response of the myeloid leukemia KG1 and T-lymphocyte leukemia Molt3 cell lines to the cytostatic effect of the novel compounds was determined using the above-mentioned standardized bead suspension that was used to determine the absolute cell number by flow cytometric (FCM) measurement. Cells were grown in the presence of increasing concentrations of the compounds of the invention.

[4] = system: myeloid leukemia KG1 cell line; assay: cell growth of KG1 cell line, flow cytometric cell count; conditions: read-out: KGI IC50
Protocol: To determine reversibility of the effects of the new compounds, cells were plated at 10,000 per well and exposed to 0-50 μM of the composed, either continuously for 7 days (control) or only for 6 hours. In the latter case, cells were washed after 6 hours in phosphate-buffered-saline (PBS) (Life Technologies) and reseeded into drug-free medium for 7 days.

[5] = Table 5, CDC2 activity in cell free system

SMILES | IC50 [1] [µM] | IC50 (B16 melanoma) [µM] | IC50 (CDC2; [5]) [µM] | IC50 [2] [µM] | other results
CC(C)n1cnc2c(NCc3ccc(O)c(O)c3)nc(NCCO)nc21 | 35 | 32 | – | – | –
CCCCCCNc1nc(NCc2ccc(O)c(O)c2)c2ncn(C(C)C)c2n1 | 22 | 21 | – | – | –
CC(C)n1cnc2c(NCc3ccc(O)c(O)c3)nc(NC[C@@H](C)O)nc21 | 35 | 41 | – | – | –
CC(O)CNc1nc(NC(CO)c2ccccc2)c2ncn(C(C)C)c2n1 (stereo not shown) | – | – | – | – | IC50 (CDC2; Table 3): 0.6 µM
CC[C@@H](CO)Nc1nc(NCc2ccc(O)c(O)c2)c2ncn(C(C)C)c2n1 | 51 | 53 | – | – | –
CC(C)n1cnc2c(NCc3ccc(O)c(O)c3)nc(NC[C@H](C)O)nc21 | 12 | 10 | – | – | –
CC(C)n1cnc2c(NC(CO)c3ccccc3)nc(CCCCCC#N)nc21 (racemic) [P24, 2-(5-cyanopentyl)-6-[(R,S)-(1-phenyl-2-hydroxyethyl)amino]-9-isopropylpurine] | – | – | 6.3 | 33 ± 4.4 | IC50 [3]: 42.5 ± 6 µM; IC50 ([4]; 96 hours of culture): 42 ± 4.8 µM
CCCCCCNc1nc(NC(C)c2ccc(O)c(O)c2)c2ncn(C(C)C)c2n1 (stereo not shown) [P17] | – | – | 1 | 18 ± 2.8 | IC50 [3]: 24 ± 6.2 µM; IC50 ([4]; 96 hours of culture): 35.3 ± 5.7 µM
CC(Nc1nc(NCCCO)nc2c1ncn2C(C)C)c1ccc(O)c(O)c1 (stereo not shown) [P18] | – | – | 2.6 | 14.9 ± 2.9 | IC50 [3]: 23 ± 2.8 µM; IC50 ([4]; 96 hours of culture): 18.7 ± 0.3 µM
CC[C@H](CO)Nc1nc(NCc2ccc(O)cc2)c2ncn(C(C)C)c2n1 [P19] | – | – | – | 6 | IC50 [3]: 15 ± 2 µM; IC50 ([4]; 96 hours of culture): 11 ± 1.3 µM
CC(Nc1nc(NCCCO)nc2c1ncn2C(C)C)c1ccc(O)c(O)c1 (stereo not shown) [P20] | – | – | – | 35 ± 7.3 | –
Cn1cnc2c(NC(CO)c3ccccc3)nc(N3CCOCC3)nc21 (stereo not shown) [P21, 2-(morpholino)-6-(1-phenyl-2-hydroxyethylamino)-9-methylpurine] | – | – | 6.5 | – | CC50 [2]: 40 ± 7.7 µM; IC50 ([3]; Homo sapiens, MOLT-3): 50 ± 1.3 µM; IC50 ([4]; Homo sapiens, KG-1, 96 h): 48 ± 1.5 µM
CC(C)n1cnc2c(NC(CO)c3ccccc3)nc(SCCO)nc21 (stereo not shown) [P22, 2-(2-hydroxyethylthio)-6-(1-phenyl-2-hydroxyethylamino)-9-isopropylpurine] | – | – | 3.8 | – | CC50 [2]: 11 ± 1.5 µM; IC50 ([3]; Homo sapiens, MOLT-3): 17 ± 1.7 µM; IC50 ([4]; Homo sapiens, KG-1, 96 h): 13 ± 1.4 µM
CC(C)n1cnc2c(SCc3ccccc3)nc(NCCCO)nc21 [P25, 2-(3-hydroxypropylamino)-6-benzylthio-9-isopropylpurine] | – | – | > 100 | – | CC50 [2]: 18 ± 1.6 µM; IC50 ([3]; Homo sapiens, MOLT-3): 19 ± 2 µM; IC50 ([4]; Homo sapiens, KG-1, 96 h): 42 ± 5 µM
CC(C)n1cnc2c(NC(CO)c3ccccc3)nc(NCC(O)CO)nc21 [P26, 2-(2,3-dihydroxypropylamino)-6-[(R,S)-(1-phenyl-2-hydroxyethyl)amino]-9-isopropylpurine] | – | – | > 100 | – | CC50 [2]: 20 ± 1 µM; IC50 ([3]; Homo sapiens, MOLT-3): 23.7 ± 3.4 µM; IC50 ([4]; Homo sapiens, KG-1, 96 h): 20 ± 1 µM
